The text below walks through data of US20100119483A1, “PEPTIDE VIRAL ENTRY INHIBITORS” (Schering Corporation, priority 2004, published 2010).

The test system of test [1] is HCV pseudoparticles. In words: HCV pseudoparticle (HCVpp) entry assay in Huh7 hepatoma cells, luciferase readout. The conditions noted are these: for HCVpp % inh: peptide library screen, first screened at 100 ug/ml, cell entry inhibition vs uninhibited control; for luciferase units, HCV entry: duplicates, listed as scrambled SEQ ID NO: 138. Type of test: cell-based, hepatitis C virus. In short, it runs like this: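 Huh7 cells were pre-treated with peptide for 1 h at 37 °C before exposure to HCV E1/E2-pseudotyped HIV luciferase particles made in 293T cells, followed by 72 h culture and luciferase readout. Peptides were tested at 10 points, 3-fold, from 100 ug/ml; particles lacking envelope served as non-specific entry control.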

Test [2] concerns amphotropic murine leukemia virus. The experiment in a line: AMLV pseudotyped virus entry counter-screen, same infection protocol. Format: cell-based. The settings on record: for AMLVpp % inh: peptide library screen, cell entry inhibition vs uninhibited control; for luciferase units, AMLV entry: duplicates, listed as scrambled SEQ ID NO: 106. The procedure:
Infection of hepatoma cell lines with HCV pseudotype particles and screen for inhibitory peptides. The hepatoma cells, Huh7, was seeded at 8000 cells in 90 ul medium in 96-well plate. In the case of the inhibitor screen, the inhibitor was incubated with cells for one hour at 37° C. and then 50 ul viral supernatant was added to the cells 24 hours after seeding. The viral stock was pre-tittered and diluted to yield approximately 10,000 to 20,000 RLU. The cells were incubated at 37° C. with 5% CO2 for additional 72 hours and were harvested for luciferase assay. Peptide stocks were prepared in 100% DMSO at 10 mg/ml and were first screened at 100 ug/ml and then a dose responsive curve was generated with 10 points 3-fold titration starting from 100 ug/ml.
The specificity of the peptides were counter-screened with AMLV and HIV pseudotyped viruses using the same infection protocol.
(In general: The purpose of a counterscreen is to sort out artefacts and off-target activity.)

Several values for one entry are separate records, joined by “and”; a condition that tells them apart may be missing. Equal values may be shown once. Ends that are not written are not given here.

For “E-Y-V-L-L-L-F-L-L-L-A-D-A-R-V-C [SEQ ID NO: 78]”, the HCVpp % inh in test [1] is listed as 38%. The AMLVpp % inh in test [2] amounted to 34%.
As to “F-A-Q-G-W-G-P-I-T-Y-N-E-S-H-S-S [SEQ ID NO: 42]”, the HCVpp % inh in test [1] came out at 49%. Besides, the AMLVpp % inh in test [2] is 15%.
As to “F-L-A-A-L-F-Y-V-H-K-F-N-S-S-G-C [SEQ ID NO: 38]”, the HCVpp % inh in test [1] worked out at 23%. In addition, the AMLVpp % inh in test [2] is given as −44%.
For “G-C-P-E-R-M-A-S-C-S-P-I-D-A-F-A [SEQ ID NO: 40]”, the HCVpp % inh in test [1] was determined as 35%. For the same substance, the AMLVpp % inh in test [2] is −4%.
With “G-H-V-T-G-H-R-M-A-W-D-M-M-M-N-W [SEQ ID NO: 20]”, the HCVpp % inh in test [1] was determined as 43%. For the same substance, in test [2], the AMLVpp % inh was 6%.
Consider “G-S-G-P-W-L-T-P-R-C-L-V-H-Y-P-Y (GSGPWLTPRCLVHYPY; HCV peptide) [SEQ ID NO: 61]”, for which the HCVpp % inh in test [1] is −15%. Further, the AMLVpp % inh in test [2] is −8%.
As to “G-V-Y-H-V-T-N-D-C-S-N-A-S-I-V-Y [SEQ ID NO: 4]”, the HCVpp % inh in test [1] was −23%. Moreover, the AMLVpp % inh in test [2] is reported as −6%.
In the case of “I-F-K-V-R-M-Y-V-G-G-V-E-H-R-L-E (IFKVRMYVGGVEHRLE; HCV peptide) [SEQ ID NO: 65]”, the HCVpp % inh in test [1] is 19%. The AMLVpp % inh in test [2] is −62%.
For “I-M-H-T-P-G-C-V-P-C-V-R-E-N-N-S [SEQ ID NO: 7]” the same measures were 3% and −4%.
Turning to “I-T-Y-N-E-S-H-S-S-D-Q-R-P-Y-C-W [SEQ ID NO: 43]”, the HCVpp % inh in test [1] is −13%. Also, the AMLVpp % inh in test [2] was determined as 17%.
In the case of “K-T-L-T-C-P-T-D-C-F-R-K-H-P-E-A [SEQ ID NO: 58]”, in test [1], the HCVpp % inh is recorded as 50%. Further, the AMLVpp % inh in test [2] is given as 13%.
In the same order, the values of “L-E-A-A-C-N-W-T-R-G-E-R-C-N-L-E [SEQ ID NO: 67]” are 26% and 37%.
On to “L-E-D-R-D-R-S-E-L-S-P-L-L-L-S-T (LEDRDRSELSPLLLST; not fully specified (C-terminus); printed as L-E-D-R-D-R-S-E-L-S-P-L-L-L-S-T) [SEQ ID NO: 69]”, for which the HCVpp % inh in test [1] is −15%. Also, the AMLVpp % inh in test [2] is 1%.
Consider “L-F-S-P-G-S-S-Q-K-I-Q-L-V-N-T-N [SEQ ID NO: 33]”, for which, in test [1], the HCVpp % inh came to 61%. For the same substance, the AMLVpp % inh in test [2] is listed as −49%.
For “L-F-T-F-S-P-R-R-H-E-T-V-Q-D-C-N [SEQ ID NO: 17]”, the HCVpp % inh in test [1] is recorded as 9%. Further, the AMLVpp % inh in test [2] is given as 16%.
As to “L-I-H-L-H-Q-N-V-V-D-V-Q-Y-L-Y-G [SEQ ID NO: 74]”, the HCVpp % inh in test [1] is recorded as 22%. Besides, in test [2], the AMLVpp % inh amounted to 5%.
For the substance “L-L-L-A-D-A-R-V-C-A-C-L-W-M-M-L [SEQ ID NO: 79]”, the HCVpp % inh in test [1] is 77%. In test [2], the AMLVpp % inh stood at 16%.
With “L-P-A-L-S-T-G-L-I-H-L-H-Q-N-V-V [SEQ ID NO: 73]”, the HCVpp % inh in test [1] is reported as 19%. For the same substance, the AMLVpp % inh in test [2] is given as 0%.
“L-P-C-S-F-T-T-L-P-A-L-S-T-G-L-I (LPCSFTTLPALSTGLI; HCV peptide) [SEQ ID NO: 72]”: the HCVpp % inh in test [1] is −2%. Moreover, the AMLVpp % inh in test [2] is 20%.
In the case of “L-V-V-S-Q-L-L-R-I-P-Q-A-V-V-D-M [SEQ ID NO: 23]”, the HCVpp % inh in test [1] is 3%. Moreover, in test [2], the AMLVpp % inh is on record as −1%.
Take “LKLFEVYLILWLA (HCV peptide) [SEQ ID NO: 138, scrambled 13-mer]”: the “luciferase units, HCV entry” value in test [1] (0.04115226 uM of peptide) is 12287 luciferase units and 13159 luciferase units and 13838 luciferase units and 13589 luciferase units and 10645 luciferase units and 10230 luciferase units; in test [1] (0.1234568 uM of peptide), 9257 luciferase units and 8961 luciferase units and 11382 luciferase units and 10746 luciferase units and 7229 luciferase units and 6598 luciferase units; in test [1] (0.3703704 uM of peptide), 7620 luciferase units and 8597 luciferase units and 9180 luciferase units and 5716 luciferase units and 8494 luciferase units and 8291 luciferase units; in test [1] (1.111111 uM of peptide) it was 6456 luciferase units and 7681 luciferase units and 9683 luciferase units and 9482 luciferase units and 9053 luciferase units and 7359 luciferase units; in test [1] (3.333333 uM of peptide) it was 7729 luciferase units and 11535 luciferase units and 12632 luciferase units and 8653 luciferase units and 8028 luciferase units and 10288 luciferase units; in test [1] (30 uM of peptide) it was 7047 luciferase units and 5340 luciferase units and 7406 luciferase units and 5158 luciferase units and 5107 luciferase units and 5826 luciferase units. The “activity compared to the wild type 13-mer peptide” value in test [1] (HCVpp entry inhibition, in words) is listed as “still showed some activity, though weakened”. The “luciferase units, AMLV entry” value is 43854 luciferase units and 39721 luciferase units and 46556 luciferase units and 44480 luciferase units and 40734 luciferase units and 47413 luciferase units in test [2] (0.04115226 uM of peptide); 39298 luciferase units and 28711 luciferase units and 46132 luciferase units and 49974 luciferase units and 42958 luciferase units and 51726 luciferase units in test [2] (0.1234568 uM of peptide); 48158 luciferase units and 45212 luciferase units and 49139 luciferase units and 49219 luciferase units and 51358 luciferase units and 50551 luciferase units in test [2] (0.3703704 uM of peptide); 49084 luciferase units and 39443 luciferase units and 53349 luciferase units and 51341 luciferase units and 46069 luciferase units and 46019 luciferase units in test [2] (1.111111 uM of peptide); 50674 luciferase units and 41738 luciferase units and 60859 luciferase units and 50020 luciferase units and 51236 luciferase units and 49388 luciferase units in test [2] (3.333333 uM of peptide); 87785 luciferase units and 60410 luciferase units and 83010 luciferase units and 77083 luciferase units and 85612 luciferase units and 79287 luciferase units in test [2] (30 uM of peptide).
For the substance “M-A-W-D-M-M-M-N-W-S-P-T-A-A-L-V (MAWDMMMNWSPTAALV; not fully specified (C-terminus); printed as M-A-W-D-M-M-M-N-W-S-P-T-A-A-L-V) [SEQ ID NO: 21]”, in test [1], the HCVpp % inh came out at 32%. Also, the AMLVpp % inh in test [2] stood at 3%.
“N-D-S-L-N-T-G-F-L-A-A-L-F-Y-V-H [SEQ ID NO: 37]”: in test [1], the HCVpp % inh is listed as 14%. For the same substance, the AMLVpp % inh in test [2] was found to be 15%.
As to “N-I-G-G-I-G-N-K-T-L-T-C-P-T-D-C [SEQ ID NO: 57]”, the HCVpp % inh in test [1] was found to be 39%. For the same substance, the AMLVpp % inh in test [2] turned out to be 20%.
In the same order, the values of “N-R-T-A-L-N-C-N-D-S-L-N-T-G-F-L (NRTALNCNDSLNTGFL; not fully specified (C-terminus); printed as N-R-T-A-L-N-C-N-D-S-L-N-T-G-F-L) [SEQ ID NO: 36]” are 23% and 18%.
In the same order, the values of “N-S-S-R-C-W-V-A-L-T-P-T-L-A-A-R [SEQ ID NO: 9]” are 5% and 28%.
Consider “N-S-T-G-F-T-K-T-C-G-C-P-P-C-N-I [SEQ ID NO: 55]”, for which, in test [1], the HCVpp % inh turned out to be 23%. Moreover, in test [2], the AMLVpp % inh is 3%.
Take “N-T-L-G-I-T-S-L-F-S-P-G-S-S-Q-K [SEQ ID NO: 32]”: the HCVpp % inh in test [1] turned out to be 11%. Moreover, the AMLVpp % inh in test [2] stood at 2%.
On to “N-W-A-K-V-L-I-V-M-L-L-F-A-G-V-D [SEQ ID NO: 28]”, for which the HCVpp % inh in test [1] is listed as 13%. In test [2], the AMLVpp % inh is recorded as −1%.
